{"source": "patent US9408889B2", "about": "“Fusion peptide designed to reduce plaque bacteria and yeast in the oral cavity” (RUTGERS, THE STATE UNIVERSITY OF NEW JERSEY, priority 2011, dated 2016)", "key": {"Streptococcus mutans": {"system": "Streptococcus mutans", "assay": "Killing of Streptococcus mutans by lactoferrin variants and peptide", "format": "cell-based", "conditions": "synthetic peptide", "description": "Caries is the single most common chronic childhood disease, five times more common than asthma. Over 70% of children […] have cavities. Over 108 million Americans lack dental health insurance so that treatment of this infection is lacking. S. mutans is considered one of the microbes most associated with dental decay.\nOthers have shown that lactoferrin peptides have antimicrobial activity, but no one to date has shown that the antibacterial activity derived from this peptide is useful against organisms in the oral cavity. We have also determined that the peptide will have limited usefulness in the oral cavity unless it is linked to something that will allow the peptide to bind to a surface in the oral cavity. A fusion peptide comprising lactoferrin and statherin was previously developed, wherein the lactoferrin portion provided antimicrobial activity while the statherin portion enabled the fusion peptide to adhere to the tooth surface. […]\nLactoferrin (Lf or LF) is a multifunctional protein that is found in mammary secretion, tears and saliva and in the gastrointestinal tract. […] Further we then determined that pure lactoferrin would have limited usefulness in the oral cavity unless it was linked to something that would allow it to bind to the oral cavity."}, "oral bacteria": {"system": "oral bacteria", "conditions": "bacteria grown in a broth media; cited from earlier work"}, "bacteria": {"system": "bacteria", "conditions": "cited from earlier work"}, "[1]": {"conditions": "previously demonstrated; cited from earlier work"}, "Candida": {"system": "Candida", "assay": "Two hour cell killing assay with supernatants from salivary-coated HAP or BECs", "format": "cell-based", "conditions": "sHAP incubated with peptide, washed, 1 hour release; 2 hour cell killing assay", "description": "The procedures depicted in FIG. 5 were carried out with two LF fusion peptides (ST-LF and PAK-LF). Salivary-coated HAP was incubated with ST-LF peptide for 30 minutes and then washed with PBS and the supernatant tested. Fresh PBS was added, and the salivary-coated HAP was further incubated for 1 hour. The salivary-coated HAP was again rinsed and the supernatant solution was then tested for anti-candidal activity. The results are depicted in FIG. 6."}}, "data": [{"substance": "LF: FQWQRNMRKVR, lactoferrin peptide, lys form (listed as Homo sapiens)", "values": [{"measurement": "killing of Streptococcus mutans", "setting": "Streptococcus mutans", "value": "kills Streptococcus mutans"}]}, {"substance": "Penicillin", "values": [{"measurement": "effective concentration against oral bacteria", "setting": "oral bacteria", "value": 1, "unit": "µg/mL"}, {"measurement": "adherence of bacteria to drug-treated, washed SHA", "setting": "bacteria", "value": "no effect"}]}, {"substance": "ST-LF: DDDEEKFQWQRNMRKVR, statherin-lactoferrin fusion peptide of PCT/US08/51165 (ST-LF fusion peptide)", "values": [{"measurement": "binding to tooth enamel surfaces", "setting": "[1]", "value": "bind to tooth enamel surfaces"}, {"measurement": "anti-candidal activity of supernatant from salivary-coated HAP", "setting": "Candida", "value": "no inhibition of Candida"}]}]}
